Test results: ChEMBL document CHEMBL4706559, “New indolylarylsulfone non-nucleoside reverse transcriptase inhibitors show low nanomolar inhibition of single and double HIV-1 mutant strains” (Eur J Med Chem, 2020)

Legend:
[1] = test system: Human immunodeficiency virus 1; assay: Antiviral activity against HIV-1 NL4-3 infected in human MT-4 cells assessed as virus induced cytopathic effect by MTT assay; format: functional, organism-based; conditions: Human immunodeficiency virus 1, NL4-3, MT4
[2] = Selectivity ratio of CC50 for human MT4 cells to EC50 for antiviral activity against HIV-1 NL4-3 infected in human MT4 cells; format: toxicity, cell-based; conditions: read-out: Ratio CC50/EC50
[3] = test system: Human immunodeficiency virus 1; assay: Resistance index, ratio of EC50 for antiviral activity against HIV1 harboring RT K103N mutant infected in human MT4 cells to EC50 for antiviral activity against HIV1 NL4-3 infected in human MT4 cells; format: functional
[4] = test system: Human immunodeficiency virus 1; assay: Resistance index, ratio of EC50 for antiviral activity against HIV1 harboring RT Y188L mutant infected in human MT4 cells to EC50 for antiviral activity against HIV1 NL4-3 infected in human MT4 cells; format: functional
[5] = test system: Human immunodeficiency virus 1; assay: Antiviral activity against HIV1 harboring RT K103N/Y181C double mutant infected in human MT4 cells assessed as protection against virus-induced cytopathic effect by MTT assay; format: functional, organism-based; conditions: Human immunodeficiency virus 1, MT4
[6] = test system: Human immunodeficiency virus 1; assay: Resistance index, ratio of EC50 for antiviral activity against HIV1 harboring RT Y181C mutant infected in human MT4 cells to EC50 for antiviral activity against HIV1 NL4-3 infected in human MT4 cells; format: functional
[7] = Cytotoxicity against human MT-4 cells assessed as reduction in cell viability by MTT assay; format: cell-based, MT4
[8] = molecular target: Human immunodeficiency virus type 1 reverse transcriptase (Human immunodeficiency virus 1, UniProt Q72547, K103N); assay: Inhibition of RNA-dependent DNA polymerase activity of recombinant HIV-1 p66/p51 reverse transcriptase K103N mutant assessed as inhibition of [3H]dTTP incorporation using poly(rA)/oligo(dT) as templates incubated for 15 mins by MicroBeta scintillation counting method
[9] = Inhibition of RNA-dependent DNA polymerase activity of recombinant HIV-1 p66/p51 reverse transcriptase Y188L mutant assessed as inhibition of [3H]dTTP incorporation using poly(rA)/oligo(dT) as templates incubated for 15 mins by MicroBeta scintillation counting method; set-up: species or system Human immunodeficiency virus 1
[10] = Inhibition of RNA-dependent DNA polymerase activity of recombinant HIV-1 p66/p51 reverse transcriptase K103N/Y181C mutant assessed as inhibition of [3H]dTTP incorporation using poly(rA)/oligo(dT) as templates incubated for 15 mins by MicroBeta scintillation counting method; set-up: species or system Human immunodeficiency virus 1
[11] = molecular target: Human immunodeficiency virus type 1 reverse transcriptase (Human immunodeficiency virus 1, UniProt Q72547); assay: Inhibition of RNA-dependent DNA polymerase activity of wild type recombinant HIV-1 His-tagged p66/p51 reverse transcriptase assessed as inhibition of [3H]dTTP incorporation using poly(rA)/oligo(dT) as templates incubated for 15 mins by MicroBeta scintillation counting method
[12] = test system: Human immunodeficiency virus 1; assay: Antiviral activity against HIV1 harboring RT Y181C mutant infected in human MT4 cells assessed as protection against virus-induced cytopathic effect by MTT assay; format: functional, organism-based; conditions: Human immunodeficiency virus 1, MT4
[13] = test system: Human immunodeficiency virus 1; assay: Resistance index, ratio of EC50 for antiviral activity against HIV1 harboring RT K103N/Y181C double mutant infected in human MT4 cells to EC50 for antiviral activity against HIV1 NL4-3 infected in human MT4 cells; format: functional
[14] = test system: Human immunodeficiency virus 1; assay: Antiviral activity against HIV1 harboring RT K103N mutant infected in human MT4 cells assessed as protection against virus-induced cytopathic effect by MTT assay; format: functional, organism-based; conditions: Human immunodeficiency virus 1, MT4
[15] = test system: Human immunodeficiency virus 1; assay: Antiviral activity against HIV1 harboring RT Y188L mutant infected in human MT4 cells assessed as protection against virus-induced cytopathic effect by MTT assay; format: functional, organism-based; conditions: Human immunodeficiency virus 1, MT4

Row | Compound | EC50 [1] [nM] | selectivity ratio [2] | Ratio EC50 [3] | Ratio EC50 [4] | EC50 [5] [nM] | Ratio EC50 [6] | CC50 [7] [nM] | IC50 [8] [nM] | IC50 [9] [nM] | IC50 [10] [nM] | IC50 [11] [nM] | EC50 [12] [nM] | Ratio EC50 [13] | EC50 [14] [nM] | EC50 [15] [nM]
1 | Cc1cn([C@H]2C[C@H](N=[N+]=[N-])[C@@H](CO)O2)c(=O)[nH]c1=O [ZIDOVUDINE] | 3.7 | > 8270 | 4.3 | 8.9 | 16 | 1.6 | > 30600 |  |  |  |  |  |  |  | 
2 | Cc1cc(C)cc(S(=O)(=O)c2c(C(=O)NCc3ccc(CO)cc3)[nH]c3ccc(Cl)cc23)c1 | < 0.7 | > 44400 |  |  | 3290 | >31 | 31100 | 79 | 178 | 188 | 38 | 22 | >4703 | < 0.7 | 
3 | Cc1cc(C)cc(S(=O)(=O)c2c(C(=O)NC(C)c3ccccc3O)[nH]c3ccc(Cl)cc23)c1 (stereo unspecified) | < 0.7 | 31100 |  | >270 | 662 | >27 | 21800 |  |  |  |  | 19 | >946 | < 0.7 | 190
4 | Cc1cc(C)cc(S(=O)(=O)c2c(C(=O)Nc3ccc(O)cc3)[nH]c3ccc(Cl)cc23)c1 | < 0.7 | > 25800 |  | >1413 | 967 |  | 18100 | 106 | 81 | 375 | 69 | < 0.7 | >1381 | < 0.7 | 989
5 | Cc1cc(C)cc(S(=O)(=O)c2c(C(=O)NCc3ccc(O)c(O)c3)[nH]c3ccc(Cl)cc23)c1 | < 0.7 | > 26200 |  | >100 | 3240 | >5.9 | 18300 |  |  |  |  | 4.1 | >4624 | < 0.7 | 70
6 | Cc1cc(C)cc(S(=O)(=O)c2c(C(=O)NC(C)C(=O)NCc3ccccc3O)[nH]c3ccc(Cl)cc23)c1 (stereo unspecified) | < 0.6 | > 23900 | >62 | 10925 | 5240 | >68 | 14400 |  |  |  |  | 41 | >8733 | 37 | 6560
7 | Cc1cc(C)cc(S(=O)(=O)c2c(C(=O)NC(C)C(N)=O)[nH]c3ccc(Cl)cc23)c1 (stereo unspecified) |  |  |  |  | 700 |  |  |  |  |  |  |  |  |  | 
8 | Cc1cc(C)cc(S(=O)(=O)c2c(C(=O)NCCc3ccc(O)cc3)[nH]c3ccc(Cl)cc23)c1 | < 0.7 | > 39100 | >276 | >39103 | 4310 | >141 | 27400 |  |  |  |  | 85 | 6152 | 166 | > 27400
9 | Cc1cc(C)cc(S(=O)(=O)c2c(C(=O)Nc3ccccc3O)[nH]c3ccc(Cl)cc23)c1 | < 0.7 | > 28200 |  | >6881 | > 19700 | >28 | 19700 |  |  |  |  | 20 | >28166 | > 0.7 | 4810
10 | Cc1ccnc2c1NC(=O)c1cccnc1N2C1CC1 [NEVIRAPINE] | 112 |  |  |  | > 3760 |  | > 18800 |  |  |  |  | > 3760 |  | > 3760 | > 3760
11 | Cc1cc(C)cc(S(=O)(=O)c2c(C(=O)NCc3cccc(O)c3)[nH]c3ccccc23)c1 | < 0.7 | > 3640 |  | >1808 | 1810 | >30 | > 5200 |  |  |  |  | 21 | >2584 | < 0.7 | 1270
12 | Cc1cc(C)cc(S(=O)(=O)c2c(C(=O)NCCc3ccccc3O)[nH]c3ccc(Cl)cc23)c1 | < 0.7 | > 34000 |  | >296 | 331 |  | 23800 |  |  |  |  | < 0.7 | >473 | < 0.7 | 207
13 | Cc1cc(C)cc(S(=O)(=O)c2c(C(=O)NCC(=O)NCc3ccccc3O)[nH]c3ccc(Cl)cc23)c1 | < 0.6 | > 78900 | >251 | >2.8 | 4620 | >3.2 | > 47300 |  |  |  |  | 1.9 | >7701 | 151 | 1.7
